Experimental data from patent US20060069132A1, “Azolecarboxamide herbicides” (priority 2004, published 2006).

Tests used:
barnyardgrass [1] = test: Test B pre-/postemergence herbicide test; assay type: in vivo, Echinochloa crus-galli
In short: (§1)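 Seeds were planted and treated preemergence with compounds formulated in a non-phytotoxic solvent mixture containing surfactant, while plants at the 1- to 4-leaf stage (2 to 18 cm) received postemergence sprays. Flooded paddy plants were grown to the 2-leaf stage. After 13 to 15 days in a greenhouse, injury was visually rated 0–100 against untreated controls.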

morningglory [2] = test: Test B pre-/postemergence herbicide test; assay type: in vivo, Ipomoea coccinea
In short: as §1

velvetleaf [3] = test: Test B pre-/postemergence herbicide test; assay type: in vivo, Abutilon theophrasti
In short: (§2)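 Plants compared with untreated controls 13–15 days post-treatment and given a visual 0–100 injury score. Applications: preemergence to seeds; postemergence at 1- to 4-leaf (2–18 cm); paddy species flooded, 2-leaf stage. Vehicle non-phytotoxic, surfactant included.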

rice [4] = test: Test B pre-/postemergence herbicide test; assay type: in vivo, Oryza sativa; settings: preemergence, 125 g ai/ha; 0 to 100 scale, 0 is no effect, 100 is complete control
In short: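 Greenhouse pot assay with simultaneous preemergence (treated seed) and postemergence (2–18 cm seedlings) applications of surfactant-containing, non-phytotoxic solvent formulations. Response scored visually 13–15 days later on a 0–100 scale, 100 meaning complete control.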

giant foxtail [5] = test: Test B pre-/postemergence herbicide test; assay type: in vivo, Setaria faberi
In short: as §2

Surinam grass = test: Test B pre-/postemergence herbicide test; assay type: in vivo, Urochloa decumbens
In short: as §2

redroot pigweed = test: Test A pre-/postemergence herbicide test; assay type: in vivo, Amaranthus retroflexus; settings: for Plant response rating, Pigweed: Postemergence; for Pigweed plant response rating: Preemergence
In short: (§3)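 Greenhouse injury scoring (0–100, complete control = 100) at approximately ten days follows simultaneous pre- and postemergence application. Soil received a directed spray after seeding; seedlings of 2–10 cm at the one- to two-leaf stage were sprayed to runoff.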

pigweed = test: Test B pre-/postemergence herbicide test; assay type: in vivo, Amaranthus retroflexus
In short: as §2

[6] = system: small flower umbrella sedge; test: Test B flooded paddy test; assay type: in vivo, Cyperus difformis; settings: 1000 g ai/ha, visual rating, scale 0 to 100 (0 no effect, 100 complete control), 13 to 15 days
In short: (§4)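 Postemergence plants were sprayed with formulated test chemicals at 2 to 18 cm height (1- to 4-leaf stage); paddy species were grown to the 2-leaf stage. After 13 to 15 days in a greenhouse, injury was rated visually against untreated controls on a 0–100 scale (0 = no effect, 100 = complete control).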

ducksalad = test: Test B flooded paddy test; assay type: in vivo, Heteranthera limosa; settings: 1000 g ai/ha, visual rating, scale 0 to 100 (0 no effect, 100 complete control), 13 to 15 days
In short: as §4

barnyardgrass [7] = test: Test A pre-/postemergence herbicide test; assay type: in vivo, Echinochloa crus-galli; settings: for Plant response rating, Barnyardgrass: Postemergence; for Barnyardgrass plant response rating: Preemergence
In short: as §3

barnyardgrass [8] = test: Test B flooded paddy test; assay type: in vivo, Echinochloa crus-galli; settings: 1000 g ai/ha, visual rating, scale 0 to 100 (0 no effect, 100 complete control), 13 to 15 days
In short: as §4

giant foxtail [9] = test: Test A pre-/postemergence herbicide test; assay type: in vivo, Setaria faberi; settings: for Plant response rating, Foxtail, Giant: Postemergence; for Foxtail, Giant plant response rating: Preemergence
In short: as §3

velvetleaf [10] = test: Test A pre-/postemergence herbicide test; assay type: in vivo, Abutilon theophrasti; settings: for Velvetleaf plant response rating: Preemergence, visual rating, 0 to 100 scale (0 no effect, 100 complete control)
In short: as §3

wheat = test: Test B postemergence herbicide test; assay type: in vivo, Triticum aestivum; design: key to Wheat plant response rating: 0 = no effect, 100 = complete control; settings: scale 0 (no effect) to 100 (complete control)
In short: (§5)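 Read-out: visual comparison with controls, scored 0 to 100, where 100 means complete control and 0 no effect. Formulated chemicals were applied postemergence to plants 2–18 cm tall (1- to 4-leaf), or to flooded-paddy plants at the 2-leaf stage, then held 13 to 15 days under glass.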

rice [11] = test: Test B flooded paddy test; assay type: in vivo, Oryza sativa; settings: 1000 g ai/ha, visual rating, scale 0 to 100 (0 no effect, 100 complete control), 13 to 15 days
In short: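 Formulated test chemicals went onto postemergence plants measuring 2 to 18 cm, at one to four leaves. For the paddy assay, species had reached two leaves. Scoring took place 13–15 days later by eye, relative to untreated plants, using 0 for no effect up to 100 for full control.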

corn = test: Test B pre-/postemergence herbicide test; assay type: in vivo, Zea mays
In short: as §2

blackgrass = test: Test B postemergence herbicide test; assay type: in vivo, Alopecurus myosuroides; settings: scale 0 (no effect) to 100 (complete control)
In short: as §4

large crabgrass [12] = test: Test B pre-/postemergence herbicide test; assay type: in vivo, Digitaria sanguinalis
In short: as §2

morningglory [13] = test: Test A pre-/postemergence herbicide test; assay type: in vivo, Ipomoea spp.; settings: for Plant response rating, Morningglory: Postemergence; for Morningglory plant response rating: Preemergence
In short: as §3

cocklebur = test: Test B pre-/postemergence herbicide test; assay type: in vivo, Xanthium strumarium
In short: as §1

lambsquarters = test: Test B pre-/postemergence herbicide test; assay type: in vivo, Chenopodium album
In short: as §2

large crabgrass [14] = test: Test A pre-/postemergence herbicide test; assay type: in vivo, Digitaria sanguinalis; settings: for Plant response rating, Crabgrass, Large: Postemergence; for Crabgrass, Large plant response rating: Preemergence
In short: as §3

wild oat = test: Test B postemergence herbicide test; assay type: in vivo, Avena fatua; settings: scale 0 (no effect) to 100 (complete control)
In short: as §5

[15] = Postemergence, 500 g ai/ha, visual rating after 13 to 15 days, scale 0 (no effect) to 100 (complete control)
[16] = Preemergence, 500 g ai/ha, scale 0 to 100
[17] = postemergence, 125 g ai/ha, visual rating, scale 0 (no effect) to 100 (complete control)
[18] = preemergence, 125 g ai/ha, 0 to 100 scale, 0 is no effect, 100 is complete control
[19] = 500 g ai/ha, 0 to 100 scale, 0 no effect, 100 complete control
[20] = 2000 g ai/ha, 0 to 100 scale, 0 no effect, 100 complete control
[21] = 500 g ai/ha, visual rating, 0 to 100 scale (0 no effect, 100 complete control)
[22] = Postemergence, 500 g ai/ha, visual rating after 13 to 15 days
[23] = postemergence, 125 g ai/ha, visual rating

CCn1nc(C(C)(C)C)cc1C(=O)Nc1cc(C(=O)OC(C)(C)C)ccc1F [Compound 71]
Plant response rating, Barnyardgrass (barnyardgrass [1]; [15]): 10 | Barnyardgrass plant response rating (barnyardgrass [1]; [16]): 0 | Barnyardgrass plant response rating (barnyardgrass [1]; [17]): 0 | Plant response rating, Barnyardgrass (barnyardgrass [1]; [18]): 0 | Plant response rating, Morningglory (morningglory [2]; [15]): 0 | Morningglory plant response rating (morningglory [2]; [17]): 0 | Plant response rating, Morningglory (morningglory [2]; [18]): 0 | Plant response rating, Velvetleaf (velvetleaf [3]; [15]): 0 | Velvetleaf plant response rating (velvetleaf [3]; [17]): 0 | Plant response rating, Velvetleaf (velvetleaf [3]; [18]): 0 | Plant response rating, Rice (rice [4]): 0 | Plant response rating, Foxtail, Giant (giant foxtail [5]; [15]): 10 | Foxtail, Giant plant response rating (giant foxtail [5]; [16]): 0 | Foxtail, Giant plant response rating (giant foxtail [5]; [17]): 0 | Plant response rating, Foxtail, Giant (giant foxtail [5]; [18]): 0 | Plant response rating, Surinam Grass (Surinam grass; [15]): 10 | Surinam Grass plant response rating (Surinam grass; [17]): 0 | Plant response rating, Surinam Grass (Surinam grass; [18]): 0 | Plant response rating, Pigweed (redroot pigweed; [19]): 0 | Plant response rating, Pigweed (redroot pigweed; [20]): 0 | Pigweed plant response rating (redroot pigweed; [21]): 0 | Pigweed plant response rating (redroot pigweed; [20]): 0 | Plant response rating, Pigweed (pigweed; [15]): 20 | Pigweed plant response rating (pigweed; [17]): 0 | Plant response rating, Pigweed (pigweed; [18]): 0 | Sedge, Umbrella plant response rating [6]: 0 | Ducksalad plant response rating (ducksalad): 0 | Plant response rating, Barnyardgrass (barnyardgrass [7]; [19]): 0 | Plant response rating, Barnyardgrass (barnyardgrass [7]; [20]): 0 | Barnyardgrass plant response rating (barnyardgrass [7]; [21]): 0 | Barnyardgrass plant response rating (barnyardgrass [7]; [20]): 0 | Barnyardgrass plant response rating (barnyardgrass [8]): 0 | Plant response rating, Foxtail, Giant (giant foxtail [9]; [19]): 0 | Plant response rating, Foxtail, Giant (giant foxtail [9]; [20]): 0 | Foxtail, Giant plant response rating (giant foxtail [9]; [21]): 0 | Foxtail, Giant plant response rating (giant foxtail [9]; [20]): 0 | Plant response rating, Velvetleaf (velvetleaf [10]; Postemergence, 2000 g ai/ha, 0 to 100 scale, 0 no effect, 100 complete control): 0 | Velvetleaf plant response rating (velvetleaf [10]; 500 g ai/ha): 0 | Velvetleaf plant response rating (velvetleaf [10]; 2000 g ai/ha): 0 | Plant response rating, Wheat (wheat; [22]): 0 | Wheat plant response rating (wheat; [23]): 0 | Rice plant response rating (rice [11]): 0 | Plant response rating, Corn (corn; [15]): 10 | Corn plant response rating (corn; [16]): 0 | Corn plant response rating (corn; [17]): 0 | Plant response rating, Corn (corn; [18]): 0 | Plant response rating, Blackgrass (blackgrass; [22]): 0 | Blackgrass plant response rating (blackgrass; [23]): 0 | Plant response rating, Crabgrass, Large (large crabgrass [12]; [15]): 10 | Crabgrass, Large plant response rating (large crabgrass [12]; [16]): 0 | Crabgrass, Large plant response rating (large crabgrass [12]; [17]): 0 | Plant response rating, Crabgrass, Large (large crabgrass [12]; [18]): 0 | Plant response rating, Morningglory (morningglory [13]; [19]): 0 | Plant response rating, Morningglory (morningglory [13]; [20]): 0 | Morningglory plant response rating (morningglory [13]; [21]): 0 | Morningglory plant response rating (morningglory [13]; [20]): 0 | Plant response rating, Cocklebur (cocklebur; [15]): 0 | Cocklebur plant response rating (cocklebur; [16]): 0 | Cocklebur plant response rating (cocklebur; [17]): 0 | Plant response rating, Cocklebur (cocklebur; [18]): 0 | Plant response rating, Lambsquarters (lambsquarters; [15]): 20 | Lambsquarters plant response rating (lambsquarters; [17]): 0 | Plant response rating, Lambsquarters (lambsquarters; [18]): 0 | Plant response rating, Crabgrass, Large (large crabgrass [14]; [19]): 0 | Plant response rating, Crabgrass, Large (large crabgrass [14]; [20]): 0 | Crabgrass, Large plant response rating (large crabgrass [14]; [21]): 0 | Crabgrass, Large plant response rating (large crabgrass [14]; [20]): 0 | Plant response rating, Oat, Wild (wild oat; [22]): 0 | Oat, Wild plant response rating (wild oat; [23]): 0
